Data set [1] is described as follows: Solubility of bases in propylene glycol monomethyl ether acetate (shaken overnight, visual inspection). The following applies: for Solubility, 0.2 wt. % in PGMEA: 0.2 wt. % solution in propylene glycol monomethyl ether acetate, shaken ~20 hours at room temperature; for Solubility, 0.2 wt. % in PGMEA / Solubility, 0.1 wt. % in PGMEA: visual inspection; for Solubility, 0.1 wt. % in PGMEA: diluted to 0.10 wt. % in propylene glycol monomethyl ether acetate; for Solubility in the solvent of the photoresist (propylene glycol monomethyl ether acetate): concentration not given. It is filed as physicochemical. How it is done:
Several bases were evaluated for solubility in propylene glycol monomethyl ether acetate, the most commonly used solvent in photoresist compositions. A 0.2 wt. % solution of each base was made with propylene glycol monomethyl ether acetate in glass vials. The vials were then placed on a shaker and allowed to shake overnight (˜20 hours) at room temperature. The vials were then visually inspected. If the vials were clear without any haze, cloudiness or solids or crystals at the bottom of the vial, then the base was considered soluble in propylene glycol monomethyl ether acetate. If the vials had haze, cloudiness or solids or crystals at the bottom of the vial, the base was considered not soluble in propylene glycol monomethyl ether acetate. For those vials which contained base at 0.2 wt. % and were considered not soluble, additional propylene glycol monomethyl ether acetate was added to dilute the solution to 0.15 wt. %, or 0.10 wt. %. The diluted vials were then evaluated as discussed above. No further dilutions were made beyond 0.10 wt. %.

The nature of data set [2]: Solubility of bases in the antireflective coating solvent 4-hydroxy-4-methyl-2-pentanone. It is filed as physicochemical. An excerpt: For this experiment, base A is aminophylline, which is considered an insoluble base in the solvent of the photoresist (in this experiment, propylene glycol monomethyl ether acetate) but soluble in the solvent of the antireflective coating (in this experiment, 4-hydroxy-4-methyl-2-pentanone); base B is tridodecylamine, which is soluble in both the solvent of the photoresist (in this experiment, propylene glycol monomethyl ether acetate) and the solvent of the antireflective coating (in this experiment, 4-hydroxy-4-methyl-2-pentanone). The bases were evaluated alone or as mixtures in the antireflective coatings. The antireflective coatings were prepared using a co-polymer of benzyl methacrylate—mevalonic lactone methacrylate. The photoacid generator (PAG) was triphenylsulfonium nonaflate, and the aforementioned base(s) and 4-hydroxy-4-methyl-2-pentanone as the solvent completed the antireflective coating formulations. The PAG content was kept at 1.7 wt. % of total solids of the antireflective coating formulations and the antireflective coating formulations were 1.65% total solids.

Where two headings read alike, the source gives them in different places.

For the compound `Nc1nc(N)c2[nH]cnc2n1` [2,6-Diaminopurine], in data set [1], the “Solubility, 0.2 wt. % in PGMEA” value is listed as “Not soluble” and the “Solubility, 0.1 wt. % in PGMEA” value is reported as “Not soluble”.

Turning to `CN(C)c1ncnc2nc[nH]c12` [6-(Dimethylamino)purine], in data set [1], the “Solubility, 0.2 wt. % in PGMEA” value was “Not soluble” and the “Solubility, 0.1 wt. % in PGMEA” value is reported as “Soluble”.

For the compound `Cn1c(=O)c2[nH]c(Cl)nc2n(C)c1=O` [8-Chlorotheophyllline], in data set [1], the “Solubility, 0.2 wt. % in PGMEA” value was “Not soluble” and the “Solubility, 0.1 wt. % in PGMEA” value is “Not soluble”.

As for `Nc1ncnc2nc[nH]c12` [Adenine], in data set [1], the “Solubility, 0.2 wt. % in PGMEA” value is listed as “Not soluble” and the “Solubility, 0.1 wt. % in PGMEA” value is “Not soluble”.

As for `Cn1c(=O)c2[nH]cnc2n(C)c1=O` [Aminophylline, reference compound], the “Solubility in the solvent of the antireflective coating (4-hydroxy-4-methyl-2-pentanone)” value in data set [2] (concentration not given) was “soluble”. Further, in data set [1], the “Solubility, 0.2 wt. % in PGMEA” value is on record as “Not soluble”; the “Solubility in the solvent of the photoresist (propylene glycol monomethyl ether acetate)” value is reported as “insoluble”; the “Solubility, 0.1 wt. % in PGMEA” value was “Not soluble”.

For the compound `Nc1nc2nc[nH]c2c(=O)[nH]1` [Guanine], in data set [1], the “Solubility, 0.2 wt. % in PGMEA” value is “Not soluble” and the “Solubility, 0.1 wt. % in PGMEA” value is on record as “Not soluble”.

For the compound `c1ncc2[nH]cnc2n1` [Purine], in data set [1], the “Solubility, 0.2 wt. % in PGMEA” value was “Not soluble” and the “Solubility, 0.1 wt. % in PGMEA” value is given as “Not soluble”.

As to `Cn1c(=O)c2[nH]cnc2n(C)c1=O` [Theophylline, reference compound], in data set [1], the “Solubility, 0.2 wt. % in PGMEA” value is “Not soluble” and the “Solubility, 0.1 wt. % in PGMEA” value is “Soluble”.

Take `CCCCCCCCCCCCN(CCCCCCCCCCCC)CCCCCCCCCCCC` [tridodecylamine, reference compound]: the “Solubility in the solvent of the antireflective coating (4-hydroxy-4-methyl-2-pentanone)” value in data set [2] is on record as “soluble”. Further, the “Solubility in the solvent of the photoresist (propylene glycol monomethyl ether acetate)” value in data set [1] is on record as “soluble”.

Source of the values: patent US20080032229A1, “BOTTOM ANTIREFLECTIVE COATINGS” (priority 2003, published 2008).
